BindingDB's records for doi:10.1007/pl00005326 (Schering-Plough Research Institute, 1999)

Molecular target: T1, Adenosine receptor A3 (Homo sapiens, UniProt P0DMS8)
T1 sequence (P0DMS8 whole entry): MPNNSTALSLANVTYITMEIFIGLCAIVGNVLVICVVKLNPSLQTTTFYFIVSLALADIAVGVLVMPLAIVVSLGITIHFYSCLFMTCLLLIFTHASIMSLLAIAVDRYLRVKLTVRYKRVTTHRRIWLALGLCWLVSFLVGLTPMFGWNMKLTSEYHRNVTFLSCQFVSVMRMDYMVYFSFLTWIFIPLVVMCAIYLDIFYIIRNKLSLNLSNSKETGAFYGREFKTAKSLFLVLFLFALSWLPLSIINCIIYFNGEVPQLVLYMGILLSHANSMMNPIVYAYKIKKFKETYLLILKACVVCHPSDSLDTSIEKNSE

**Q.** Which Ki does the source give for `Nc1nc(NCCc2ccc(O)cc2)nc2nc(-c3ccco3)nn12` here?
**A.** Its Ki is greater than 10 µM.

**Q.** For `Nc1nc2ccc(Cl)cc2c2nc(-c3ccco3)nn12`, which Ki is on record?
**A.** The Ki was 0.095 µM.

**Q.** For `Nc1nc2c(cnn2CCc2ccccc2)c2nc(-c3ccco3)nn12`, which Ki is on record?
**A.** The Ki was greater than 10 µM.
